US6444696B1, “Pyrazole derivatives P38 MAP kinase inhibitors” (Syntex (U.S.A.) LLC, priority 1998, dated 2002)
Structures can show the parent of a compound that is named as a salt.

Legend:
p38 MAP kinase = target: T1, p38 MAP kinase (Homo sapiens, UniProt Q16539); experiment: Inhibition of p-38 (MAP) kinase, in vitro assay (transfer of γ-33P from ATP to Myelin Basic Protein); type: biochemical; conditions: phosphorylated recombinant p38 MAP kinase, MBP substrate, γ-33P-ATP, 30° C.; read-out: IC50, μM (p-38 inhibitory activity)
T1 construct: made in house; host or cells: E. coli (co-expressed with SEK-1 and MEKK to obtain the phosphorylated form)
Method: The p-38 MAP kinase inhibitory activity of compounds of this invention in vitro was determined by measuring the transfer of the γ-phosphate from γ-^33P-ATP by p-38 kinase to Myelin Basic Protein (MBP), using the a minor modification of the method described in Ahn, N. G.; et al. J. Biol. Chem. Vol. 266(7), 4220-4227, (1991).
The phosphorylated form of the recombinant p38 MAP kinase was expressed with SEK-1 and MEKK in E. Coli and then purified by affinity chromatography using a Nickel column.
The phosphorylated p38 MAP kinase was diluted in kinase buffer (20 mM 3-(N-morpholino)propanesulfonic acid, pH 7.2, 25 mM β-glycerol phosphate, 5 mM ethylene glycol-bis(beta-aminoethyl ether)-N,N,N′,N′-tetraacetic acid, 1 mM sodium vanadate, 1 mM dithiothreitol, 40 mM magnesium chloride). Test compound dissolved in DMSO or only DMSO (control) was added and the samples were incubated for 10 min at 30° C. The kinase reaction was initiated by the addition of a substrate cocktail containing MBP and γ-^33P-ATP. After incubating for an additional 20 min at 30° C., the reaction was terminated by adding 0.75% phosphoric acid. The phosphorylated MBP was then separated from the residual γ-^33P-ATP using a phosphocellulose membrane (Millipore, Bedford, Mass.) and quantitated using a scintillation counter (Packard, Meriden, Conn.).
Compounds of the invention were active in this assay.

[1] = tested on: TNF-α Production In THP 1 Cells; experiment: Inhibition of LPS-induced TNF-α production in THP-1 cells, in vitro assay (ELISA); type: cell-based; conditions: Homo sapiens, LPS 0.5 μg/ml, 2 h, TNF-α by ELISA, read-out: IC50, μM (inhibition of TNF-α release)
Method: The ability of the compounds of this invention to inhibit the TNF-α release was determined using a minor modification of the methods described in described in Blifeld, C. et al. Transplantation, Vol. 51(2), 498-503, (1991).
THP-1 cells were suspended in culture medium [RPMI (Gibco-BRL, Gailthersburg, Md.) containing 15% fetal bovine serum, 0.02 mM 2-mercaptoethanol], at a concentration of 2.5×10^6 cells/ml and then plated in 96 well plate (0.2 ml aliquots in each well). Test compounds were dissolved in DMSO and then diluted with the culture medium such that the final DMSO concentration was […]. 20 μl aliquots of test solution or only medium with DMSO (control) were added to each well. The cells were incubated for 30 min., at 37° C. LPS (Sigma, St. Louis, Mo.) was added to the wells at a final concentration of 0.5 μg/ml, and cells were incubated for an additional 2 h. At the end of the incubation period, culture supernatants were collected and the amount of TNF-α present was determined using an ELISA assay as described below.
The amount of human TNF-α present was determined by a specific trapping ELISA assay using two anti-TNF-α antibodies (2TNF-H22 and 2TNF-H34) described in Reimund, J. M., et al. GUT. Vol. 39(5), 684-689 (1996).
Polystyrene 96-well plates were coated with 50 μl per well of antibody 2TNF-H22 in PBS (10 μg/ml) and incubated in a humidified chamber at 4° C. overnight. The plates were washed with PBS and then blocked with 5% nonfat-dry milk in PBS for 1 hour at room temperature and washed with 0.1% BSA (bovine serum albumin) in PBS.
TNF standards were prepared from a stock solution of human recombinant TNF-α (R&D Systems, Minneapolis, Minn.). The concentration of the standards in the assay began at 10 ng/ml followed by 6 half log serial dilution's.
25 μl aliquots of the above culture supernatants or TNF standards or only medium (control) were mixed with 25 μl aliquots of biotinylated monoclonal antibody 2TNF-H34 (2 μg/ml in PBS containing 0.1% BSA) and then added to each well. The samples were incubated for 2 h at room temperature with gentle shaking and then washed 3 times with 0.1% BSA in PBS. 50 μl of peroxidase-streptavidin (Zymed, S. San Francisco, Calif.) solution containing 0.416 μg/ml of peroxidase-streptavidin and 0.1% BSA in PBS was added to each well. The samples were incubated for an additional 1 h at room temperature and then washed 4 times with 0.1% BSA in PBS. 50 μl of O-phenylenediamine solution (1 μg/ml O-phenylene-diamine and 0.03% hydrogen peroxide in 0.2M citrate buffer pH 4.5) was added to each well and the samples were incubated in the dark for 30 min., at room temperature. Optical density of the sample and the reference were read at 450 nm and 650 nm, respectively. TNF-α levels were determined from a graph relating the optical density at 450 nm to the concentration used.
The IC50 value was defined as the concentration of the test compound corresponding to half-maximal reduction in 450 nm absorbance. Compounds of the invention were active in this assay. The activity of selected compounds is shown below.

TNF-α Production In Rats = experiment: Inhibition of LPS-induced TNF-α production in rats, in vivo assay; design: species or system rat; conditions: dosed orally at 30 mg, LPS 50 μg/kg intraperitoneally after 30 min, serum TNF-α 1.5 h later
Method: The ability of the compounds of this invention to inhibit the TNF-α release, in vivo, was determined using a minor modification of the methods described in described in Zanetti, G.; Heumann, D., et. al. “Cytokine production after intravenous or peritoneal Gram-negative bacterial challenge in mice,” J. Immunol., 148, 1890, (1992) and Sekut, L., Menius, J. A., et. al., “Evaluation of the significance of elevated levels of systemic and localized tumor necrosis factor in different animal models of inflammation,” J. Lab. Clin. Med., 124, 813, (1994).
Female Sprague-Dawley rats weighing 110-140 grams (Charles River, Hollister, Calif.) were acclimated for one week. Groups containing 8 […] each were dosed orally either with the test compounds dissolved in an aqueous vehicle containing 0.9% sodium chloride, 0.5% sodium carboxymethyl-cellulose, 0.4% polysorbate 80, 0.9% benzyl alcohol (CMC vehicle) or only vehicle (control group). After 30 min., the mice were injected intraperitoneally with 50 μg/kg of LPS (Sigma, St. Louis, Mo.). After 1.5 h, the mice were sacrificed by CO2 inhalation and blood was harvested by cardiocentesis. Blood was clarified by centrifugation at 15,600×g for 5 min., and sera were transferred to clean tubes and frozen at −20° C. until analyzed for TNF-α by ELISA assay (Biosource International, Camarillo, Calif.) following the manufacturer's protocol. […]

T1 sequence (Q16539 whole entry): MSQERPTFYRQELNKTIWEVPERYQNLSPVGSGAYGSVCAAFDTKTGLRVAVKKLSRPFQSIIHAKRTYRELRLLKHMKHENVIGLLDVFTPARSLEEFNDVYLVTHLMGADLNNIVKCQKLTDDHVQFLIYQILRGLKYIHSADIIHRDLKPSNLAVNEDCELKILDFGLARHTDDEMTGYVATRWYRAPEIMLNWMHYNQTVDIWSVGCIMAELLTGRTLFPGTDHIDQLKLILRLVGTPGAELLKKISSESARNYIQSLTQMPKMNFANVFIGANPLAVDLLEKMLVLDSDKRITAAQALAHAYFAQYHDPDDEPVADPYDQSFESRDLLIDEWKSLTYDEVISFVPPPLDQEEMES

melting point | IC50 (p38 MAP kinase) | IC50 [1] | Structure (SMILES) | % Inhibition (TNF-α content in test group relative to vehicle treated group) (TNF-α Production In Rats)
166.7 to 168.2 °C | 3.29 µM | 6.3 µM | Nc1c(C(=O)c2ccc(C=CCN3CCOCC3)cc2)cnn1-c1ccc(F)cc1 [compound 2] | –
– | 1.78 µM | – | Nc1c(C(=O)c2cccc(C#CCN3CCOCC3)c2)cnn1-c1ccc(F)cc1 [compound 3, 5-Amino-1-(4-fluorophenyl)-4-[3-{3-(morpholin-4-yl)prop-1-ynyl}benzoyl]pyrazole] | –
161.6 to 162.8 °C | 6.18 µM | 1.26 µM | Nc1c(C(=O)c2cccc(C=CCN3CCOCC3)c2)cnn1-c1ccc(F)cc1 [compound 4] | –
– | 1.74 µM | – | Nc1c(C(=O)c2cccc(CCCN3CCOCC3)c2)cnn1-c1ccc(F)cc1 [compound 6, 5-Amino-1-(4-fluorophenyl)-4-[3-(3-morpholin-4-ylpropyl)benzoyl]pyrazole hydrochloride] | –
– | 2.18 µM | 0.61 µM | Nc1c(C(=O)c2cccc(OCCCN3CCCCC3)c2)cnn1-c1ccc(F)cc1 [compound 21] | –
156.2 to 160.9 °C | 1.12 µM | 0.14 µM | Nc1c(C(=O)c2cccc(N3CCC(Cc4ccccc4)CC3)c2)cnn1-c1ccc(F)cc1 [compound 33] | –
165.2 to 165.8 °C | 6.52 µM | 0.17 µM | Nc1cccc(C(=O)c2cnn(-c3ccc(F)cc3)c2N)c1 [compound 43, 5-amino-4-(3-aminobenzoyl)-1-(4-fluorophenyl)pyrazole] | –
– | 1.25 µM | – | Nc1c(C(=O)c2cccc(CCS(N)(=O)=O)c2)cnn1-c1ccc(F)cc1 [compound 50, 5-Amino4-[3-(2-aminosulfonylethyl)benzoyl]-1-(4-fluorophenyl)pyrazole] | –

More lines, now with the values behind:

Structure (SMILES) | melting point | IC50 (p38 MAP kinase) | IC50 [1] | % Inhibition (TNF-α content in test group relative to vehicle treated group) (TNF-α Production In Rats)
Nc1c(C(=O)c2ccc(CCCO)cc2)cnn1-c1ccccc1 [compound 1] | 148 to 152.5 °C | 1.81 µM | 1.77 µM | –
CN1CCN(CC#Cc2cccc(C(=O)c3cnn(-c4ccc(F)cc4)c3N)c2)CC1.Cl.Cl [compound 8, 5-amino-1-(4-fluorophenyl)-4-{3-[3-(4-methylpiperazin-1-yl)prop-1-ynyl]benzoyl}pyrazole.2HCl] | – | – | – | 86%
Nc1c(C(=O)c2cccc(C#CCN3CCCCC3)c2)cnn1-c1ccc(F)cc1 [compound 9, 5-amino-1-(4-fluorophenyl)-4-[3-{3-(piperidin-1-yl)prop-1-ynyl}benzoyl]pyrazole.HCl] | – | 1.32 µM | – | –
Nc1c(C(=O)c2cccc(C=CS(N)(=O)=O)c2)cnn1-c1ccc(F)cc1 [compound 10, 5-amino-4-[3-(2-aminosulfonylethenyl)benzoyl]-1-(4-fluorophenyl)pyrazole] | – | – | 1.62 µM | –
Nc1c(C(=O)c2cccc(OCCN3CCOCC3)c2)cnn1-c1ccc(F)cc1 [compound 13, 5-amino-1-(4-fluorophenyl)-4-[3-(2-morpholin-4-ylethoxy)benzoyl]pyrazole] | – | – | 0.77 µM | –
Nc1c(C(=O)c2cccc(OCCN3CCOCC3)c2)cnn1-c1ccc(F)cc1 [compound 14, 5-Amino-1-(4-fluorophenyl)-4-[3-{2-(morpholin-4-yl)ethoxy}benzoyl]pyrazole hydrochloride] | – | 1.27 µM | – | –
N#CCCCOc1cccc(C(=O)c2cnn(-c3ccc(F)cc3)c2N)c1 [compound 27] | – | 2.72 µM | 0.83 µM | –
CN1CCN(C(=O)COc2cccc(C(=O)c3cnn(-c4ccc(F)cc4)c3N)c2)CC1 [compound 38] | – | 6.31 µM | 0.69 µM | –
